# Laboratory results published in paper PMC3005796 (Biochemistry, 2010).
# Assays:
# [1] = target: T1, Human cytochrome P450 2B6dH (Homo sapiens, UniProt P20813); conditions: 1 μM P450, 25 °C, 50 mM potassium phosphate pH 7.4, 500 mM NaCl, 500 mM sucrose
# P450 2B4 [2] = target: T2, P450 2B4 (Oryctolagus cuniculus, UniProt P00178, H226Y); conditions: ratio 2B4/2B6
# [3] = target: T3, Cytochrome P450 2B4dH(H226Y) (Oryctolagus cuniculus, UniProt P00178, H226Y); conditions: for ΔAmax: 2B4dH, 1 μM P450, 25 °C, 50 mM potassium phosphate pH 7.4, 500 mM NaCl, 500 mM sucrose
# 2B6 = conditions: ref [20]; cited from earlier work
# P450 2B4 [4] = target: T2, P450 2B4; test: biochemical
# P450 2B6 = P450 2B6 (Homo sapiens, UniProt P20813, D28G/E2A/H23K/H27K/N25S/P24T/R22K/R29K/T26S); test: biochemical
# [5] = target: T3, Cytochrome P450 2B4dH(H226Y); test: biochemical
# [6] = target: T1, Human cytochrome P450 2B6dH; test: biochemical
Structure (SMILES),ΔAmax [1] [OU μM^-1],fold higher Ki of 2B4 than 2B6 (P450 2B4 [2]) [fold],ΔAmax [3] [OU μM^-1],fold higher Ks of 2B4 compared with 2B6 ([3]; ratio 2B4/2B6) [fold],suppression of bupropion hydroxylation by 2B6 (2B6) [%],Ki (P450 2B4 [4]) [µM],Ki (P450 2B6) [µM],Kd [5] [µM],Kd [6] [µM]
"COC(=O)[C@H](c1ccccc1Cl)N1CCc2sccc2C1 [Clopidogrel, clopidogrel]",0.04 ± 0.005,4,0.05 ± 0.001,~6,68,0.36 ± 0.04,0.1 ± 0.01,0.6 ± 0.06,0.1 ± 0.07
"Clc1ccccc1CN1CCc2sccc2C1 [Ticlopidine, ticlopidine]",0.02 ± 0.001,–,0.03 ± 0.008,–,90,0.81 ± 0.1,–,1.3 ± 0.1,–
